Like-named read-outs stand apart in the source and are kept apart here.
Assay: Pharmacokinetics after repeated oral administration of 250 μg/kg and 35 μg/kg of fluralaner in dogs after feeding
Type: in vivo, beagle dogs
Details: for concentration at 168 h / concentration at 192 h / concentration at 216 h / concentration at 240 h / concentration at 384 h / concentration at 528 h / concentration at 624 h / concentration at 720 h / half-life / Cmax: beagle, dog, plasma, po
Procedure: The first objective is to obtain the pharmacokinetic parameters after repeated oral administration of […] and 35 μg/kg of fluralaner in dogs after feeding.
The second objective is to investigate the pharmacodynamics between the fluralaner plasmatic dose and the effectiveness against ticks. • IVP: Investigational Veterinary Product, is pure Fluralaner+DMSO (250 μg/kg on Days 0 to 3 (0.25 mL/kg), then 35 μg/kg on Days 4 to 9 (0.35 mL/kg), then 600 μg/kg on Day 11) • Control product is DMSO (0.25 mL/kg on Days 0 to 3, then 0.35 mL/kg on Days 4 to 9)
On Days 0, 1, 2 and 3, all dogs assigned to group 2 received the Investigational Veterinary Product. On Days 0 to 3 all dogs in group 1 received the control product at a volume equal to the dogs in group 2. Dogs assigned to group 1 received the control product and served as Placebo controls. The quantity of Investigational Veterinary Product and control product administered was calculated according to the dog's individual body weight measured on Day −1. […]
On days of administration of pre-Investigational Veterinary Product or Control Product, dogs were fed (the same dog food) approximately half of their normal daily ration 30 minutes to 35 minutes prior to administration. Food consumed by the time of administration was calculated and recorded. The remainder of their normal daily ration was fed immediately after administration.
The PK parameters of fluralaner were calculated using a non-compartmental approach.
The following rules were applied for the calculation of the PK parameters: • All the plasma concentrations, validated by the bioanalytical laboratory, were used for the PK analysis. • The actual blood sampling times were used throughout. • Concentrations below the Limit of Quantification (LOQ) value were considered as zero from time zero (pre-dose) up to the time at which the first quantifiable concentration above the LOQ value was observed. Concentrations below the LOQ value between two quantifiable concentrations were considered as missing. Trailing concentrations below the LOQ value were not used in calculations.
Cmax the observed maximum concentration in plasma measured after dosing.
λz the terminal rate constant (λz) was estimated by log-linear regression analysis on data points visually assessed, to be on the terminal log-linear phase. For the slope of the terminal elimination phase to be accepted as reliable, the following criteria were used: • the terminal data points were apparently randomly distributed about a single straight line (on visual inspection), • a minimum of three data points, including the last measured data point and excluding Cmax, were available for the regression.
t1/2 the terminal plasma half-life (t1/2) was calculated according to the following equation: […]

[1] = oral 250 μg/kg Days 0-3, 35 μg/kg Days 4-9, 600 μg/kg Day 11, dogs, read-out: fluralaner concentration levels, individual animal
[2] = oral 250/35/600 μg/kg regimen, dogs, n=6, read-out: fluralaner concentration levels, GeoMean
[3] = oral 250/35/600 μg/kg regimen, dogs, n=6, read-out: fluralaner concentration levels, Maximum
[4] = oral 250/35/600 μg/kg regimen, dogs, n=6, read-out: fluralaner concentration levels, Mean
[5] = oral 250/35/600 μg/kg regimen, dogs, n=6, read-out: fluralaner concentration levels, Median
[6] = oral 250/35/600 μg/kg regimen, dogs, n=6, read-out: fluralaner concentration levels, Minimum

Q: For `Cc1cc(C2=NOC(c3cc(Cl)cc(Cl)c3)(C(F)(F)F)C2)ccc1C(=O)NCC(=O)NCC(F)(F)F` (stereo not drawn) [fluralaner, Fluralaner], which concentration at 168 h [1] is on record?
A: 491 ng/mL

Q: What about the concentration at 168 h [2] of the same compound?
A: 517 ng/mL

Q: What about the concentration at 168 h [3] of the same compound?
A: 580 ng/mL

Q: What about the concentration at 168 h [4] of the same compound?
A: 518 ng/mL

Q: And the concentration at 168 h [5]?
A: 520 ng/mL

Q: What about the concentration at 168 h [6] of the same compound?
A: 461 ng/mL

Q: And the concentration at 192 h [1]?
A: 542 ng/mL

Q: What about the concentration at 192 h [2] of the same compound?
A: 508 ng/mL

Q: And the concentration at 192 h [3]?
A: 558 ng/mL

Q: What about the concentration at 192 h [4] of the same compound?
A: 509 ng/mL

Q: What about the concentration at 192 h [5] of the same compound?
A: 520 ng/mL

Q: And the concentration at 192 h [6]?
A: 455 ng/mL

Q: And the concentration at 216 h [1]?
A: 477 ng/mL

Q: And the concentration at 216 h [2]?
A: 515 ng/mL

Q: What about the concentration at 216 h [3] of the same compound?
A: 650 ng/mL

Q: And the concentration at 216 h [4]?
A: 518 ng/mL

Q: And the concentration at 216 h [5]?
A: 485 ng/mL

Q: And the concentration at 216 h [6]?
A: 468 ng/mL

Q: What about the concentration at 240 h [1] of the same compound?
A: 386 ng/mL

Q: And the concentration at 240 h [2]?
A: 469 ng/mL

Q: What about the concentration at 240 h [3] of the same compound?
A: 724 ng/mL

Q: What about the concentration at 240 h [4] of the same compound?
A: 483 ng/mL

Q: And the concentration at 240 h [5]?
A: 422 ng/mL

Q: And the concentration at 240 h [6]?
A: 368 ng/mL

Q: And the concentration at 384 h [1]?
A: 561 ng/mL

Q: What about the concentration at 384 h [2] of the same compound?
A: 693 ng/mL

Q: And the concentration at 384 h [3]?
A: 1000 ng/mL

Q: What about the concentration at 384 h [4] of the same compound?
A: 714 ng/mL

Q: What about the concentration at 384 h [5] of the same compound?
A: 654 ng/mL

Q: What about the concentration at 384 h [6] of the same compound?
A: 523 ng/mL

Q: What about the concentration at 528 h [2] of the same compound?
A: 327 ng/mL

Q: What about the concentration at 528 h [3] of the same compound?
A: 517 ng/mL

Q: What about the concentration at 528 h [4] of the same compound?
A: 339 ng/mL

Q: And the concentration at 528 h [5]?
A: 320 ng/mL

Q: And the concentration at 528 h [6]?
A: 235 ng/mL

Q: And the concentration at 624 h [2]?
A: 254 ng/mL

Q: What about the concentration at 624 h [3] of the same compound?
A: 403 ng/mL

Q: And the concentration at 624 h [4]?
A: 263 ng/mL

Q: And the concentration at 624 h [5]?
A: 244 ng/mL

Q: And the concentration at 624 h [6]?
A: 182 ng/mL

Q: And the concentration at 720 h [1]?
A: 300 ng/mL

Q: And the concentration at 720 h [2]?
A: 262 ng/mL

Q: What about the concentration at 720 h [3] of the same compound?
A: 300 ng/mL

Q: And the concentration at 720 h [4]?
A: 265 ng/mL

Q: And the concentration at 720 h [5]?
A: 280 ng/mL

Q: And the concentration at 720 h [6]?
A: 187 ng/mL

Q: What about the half-life (oral 250 μg/kg Days 0-3, 35 μg/kg Days 4-9, 600 μg/kg Day 11, dogs, read-out: mean terminal half-life (converted)) of the same compound?
A: 15.5 days

Q: What about the Cmax (oral 250/35/600 μg/kg regimen, dogs, read-out: Cmax, range) of the same compound?
A: 561 to 1000 ng/mL

Q: And the Cmax (oral 250/35/600 μg/kg regimen, dogs, read-out: mean Cmax)?
A: 733 ng/mL

Q: And the half-life (oral 250/35/600 μg/kg regimen, dogs, read-out: terminal half-life, range)?
A: 9.47 to 20.6 days

Q: What about the steady state concentrations (with the 35 μg/kg per day dose application from Day 4 to Day 9) of the same compound?
A: reached

— patent US12714696B2, “Low dose fluralaner compositions for protection against parasitic invertebrate pest” (VIRBAC, priority 2019, dated 2026)
